Values quoted from earlier work, collected in patent publication US20070213354A1, “Compositions and Methods for the Treatment of Multiple Sclerosis” (AmpliMed Corporation, priority 2006, published 2007).

Assays:
L1210 sensitive = settings: murine leukemia L1210 sensitive to standard cytotoxic agents; MTT, continuous exposure; cited from earlier work
L1210 resistant = settings: murine leukemia L1210 resistant, P-glycoprotein producing; MTT, continuous exposure; cited from earlier work
neonatal rat myocytes = settings: 1 hour drug concentration that reduces ATP/protein ratio to 50% of untreated control myocytes; read-out: IC50 Cardiotox; cited from earlier work

Structure (SMILES)	IC50 (L1210 sensitive) [nM]	IC50 (L1210 resistant) [nM]	IC50 (neonatal rat myocytes) [nM]
CCN1CCCC(N2C(=O)c3cccc4cc5ccccc5c(c34)C2=O)C1 (centres unmarked) [2-(1-ethyl-3-piperidinyl)]	635	609	8760
O=C1c2cccc3cc4ccccc4c(c23)C(=O)N1c1cccnc1 [2-(3-pyridyl)]	544	554	> 25000
O=C1c2cccc3cc4ccccc4c(c23)C(=O)N1CCc1ccccn1 [2-(CH2)2-2-pyridyl]	6440	15500	> 25000
CN1CCCC1CCN1C(=O)c2cccc3cc4ccccc4c(c23)C1=O (centres unmarked) [2-(CH2)2-(1-methyl-2-pyrrolidinyl)]	51	56	7080
O=C1c2cccc3cc4ccccc4c(c23)C(=O)N1CCN1CCCC1 [2-(CH2)2N(CH2)4]	15	12	920
O=C1c2cccc3cc4ccccc4c(c23)C(=O)N1CCN1CCCCC1 [2-(CH2)2N(CH2)5]	51	51	10400
CN(C)CCN1C(=O)c2cccc3cc4ccccc4c(c23)C1=O [2-(CH2)2N(CH3)2]	7	7	1980
O=C1c2cccc3cc4ccccc4c(c23)C(=O)N1CCNCCO [2-(CH2)2NH(CH2)2OH]	18	41	943
CNCCN1C(=O)c2ccc(Cl)c3cc4ccccc4c(c23)C1=O [2-(CH2)2NHCH3; 6-Cl]	53	53	7600
CNCCN1C(=O)c2ccc(OC)c3cc4ccccc4c(c23)C1=O [2-(CH2)2NHCH3; 6-OCH3]	41	27	8100
CNCCN1C(=O)c2cccc3cc4ccccc4c(c23)C1=O [2-(CH2)2NHCH3]	10	21	7060
O=C1c2cccc3cc4ccccc4c(c23)C(=O)N1CCN1CCOCC1 [2-(CH2)2—N-morpholinyl]	512	512	> 25000
O=C1c2cccc3cc4ccccc4c(c23)C(=O)N1CCN1CCNCC1 [2-(CH2)2—N-piperazinyl]	174	463	6710
O=C1c2cccc3cc4ccccc4c(c23)C(=O)N1CCCN(CCO)CCO [2-(CH2)3N(CH2CH2OH)2]	76	142	8910
CN(C)CCCN1C(=O)c2cccc3cc4ccccc4c(c23)C1=O [2-(CH2)3N(CH3)2]	54	82	11400
CN(C)c1ccc(N2C(=O)c3cccc4cc5ccccc5c(c34)C2=O)cc1 [2-(p-N(CH3)2)—C6H5)]	187	1790	37300
O=C1c2cccc3cc4ccccc4c(c23)C(=O)N1Cc1ccccn1 [2-CH2-2-pyridyl]	26700	26700	> 25000
O=C1c2cccc3cc4ccccc4c(c23)C(=O)N1Cc1cccnc1 [2-CH2-3-pyridyl]	1870	2670	> 25000
CCN1CCCC1CN1C(=O)c2cccc3cc4ccccc4c(c23)C1=O (centres unmarked) [2-CH2-(1-ethyl-2-pyrrolidinyl)]	36	55	15200
Cc1ccc2cc3ccccc3c3c2c1C(=O)N(CCN(C)C)C3=O [*4-CH3]	54	68	1360
CN(C)CCN1C(=O)c2c(Cl)ccc3cc4ccccc4c(c23)C1=O [*4-Cl]	10	15	900

Structure (SMILES)	IC50 (L1210 sensitive) [nM]	IC50 (L1210 resistant) [nM]	IC50 (neonatal rat myocytes) [nM]
CN(C)CCN1C(=O)c2c(N)ccc3cc4ccccc4c(c23)C1=O [*4-NH2]	5	8	434
CN(C)CCNc1ccc2cc3ccccc3c3c2c1C(=O)N(CCN(C)C)C3=O [*4-NH(CH2)2N(CH3)2]	210	245	734
CN(C)CCN1C(=O)c2c(NC(=O)C(C)(C)C)ccc3cc4ccccc4c(c23)C1=O [*4-NHCOC(CH3)3]	862	172	> 24600
CC(=O)Nc1ccc2cc3ccccc3c3c2c1C(=O)N(CCN(C)C)C3=O [*4-NHCOCH3]	608	560	> 24300
CN(C)CCN1C(=O)c2cc(N)cc3cc4ccccc4c(c23)C1=O [*5-NH2]	6	15	1720
CN(C)CCN1C(=O)c2cc(NC(=O)C(C)(C)C)cc3cc4ccccc4c(c23)C1=O [*5-NHCOC(CH3)3]	44	15	662
CC(=O)Nc1cc2c3c(c4ccccc4cc3c1)C(=O)N(CCN(C)C)C2=O [*5-NHCOCH3]	19	73	177
CCc1ccc2c3c(c4ccccc4cc13)C(=O)N(CCN(C)C)C2=O [*6-C2H5]	183	235	7830
Cc1ccc2c3c(c4ccccc4cc13)C(=O)N(CCN(C)C)C2=O [*6-CH3]	7	27	989
CN(C)CCN1C(=O)c2ccc(Cl)c3cc4ccccc4c(c23)C1=O [*6-Cl]	77	64	4110
CN(C)CCN1C(=O)c2ccc(I)c3cc4ccccc4c(c23)C1=O [*6-I]	416	416	43700
CN(C)CCN1C(=O)c2ccc(N(C)C)c3cc4ccccc4c(c23)C1=O [*6-N(CH3)2]	23	96	46600
CN(C)CCN1C(=O)c2ccc(N)c3cc4ccccc4c(c23)C1=O [*6-NH2]	5	27	1490
CN(C)CCNc1ccc2c3c(c4cccc(Cl)c4cc13)C(=O)N(CCN(C)C)C2=O [*6-NH(CH2)2N(CH3)2; 8-Cl]	3	7	3230
CN(C)CCNc1ccc2c3c(c4ccccc4cc13)C(=O)N(CCN(C)C)C2=O [*6-NH(CH2)2N(CH3)2]	0.04	0.04	4190
CN(C)CCN1C(=O)c2ccc(NCCO)c3cc4ccccc4c(c23)C1=O [*6-NH(CH2)2OH]	6	48	1210
CN(C)CCOc1ccc2c3c(c4ccccc4cc13)C(=O)N(CCN(C)C)C2=O [*6-O(CH2)2N(CH3)2]	0.2	1	5440
CCCOc1c2ccccc2c2c3c(cccc13)C(=O)N(CCN(C)C)C2=O [*6-OC3H7]	17	49	7760
COc1ccc2c3c(c4ccccc4cc13)C(=O)N(CCN(C)C)C2=O [*6-OCH3]	3	4	799
CN(C)CCN1C(=O)c2ccc(O)c3cc4ccccc4c(c23)C1=O [*6-OH]	217	145	> 24100
CCSc1ccc2c3c(c4ccccc4cc13)C(=O)N(CCN(C)C)C2=O [*6-SC2H5]	6	5	7740

Structure (SMILES)	IC50 (L1210 sensitive) [nM]	IC50 (L1210 resistant) [nM]	IC50 (neonatal rat myocytes) [nM]
CSc1ccc2c3c(c4ccccc4cc13)C(=O)N(CCN(C)C)C2=O [*6-SCH3]	0.4	0.5	3000
CN(C)CCN1C(=O)c2ccc(S(C)(=O)=O)c3cc4ccccc4c(c23)C1=O [*6-SO2CH3]	35	35	2320
Cc1c2ccccc2c2c3c(cccc13)C(=O)N(CCN(C)C)C2=O [*7-CH3]	34	70	1680
CN(C)CCN1C(=O)c2cccc3c(Cl)c4ccccc4c(c23)C1=O [*7-Cl]	154	206	10800
CN(C)CCN1C(=O)c2cccc3c(N)c4ccccc4c(c23)C1=O [*7-NH2]	5	7	1950
CN(C)CCNc1c2ccccc2c2c3c(cccc13)C(=O)N(CCN(C)C)C2=O [*7-NH(CH2)2N(CH3)2]	524	524	291000
CC(=O)Nc1c2ccccc2c2c3c(cccc13)C(=O)N(CCN(C)C)C2=O [*7-NHCOCH3]	487	487	> 23600
CCOc1c2ccccc2c2c3c(cccc13)C(=O)N(CCN(C)C)C2=O [*7-OC2H5]	63	50	5300
CN(C)CCN1C(=O)c2cccc3c(O)c4ccccc4c(c23)C1=O [*7-OH]	472	212	> 24100
CSc1c2ccccc2c2c3c(cccc13)C(=O)N(CCN(C)C)C2=O [*7-SCH3]	6250	1220	> 50000
CN(C)CCN1C(=O)c2cccc3cc4c(N)cccc4c(c23)C1=O [*8-NH2]	6780	6780	> 81300
CC(=O)Nc1cccc2c3c4c(cccc4cc12)C(=O)N(CCN(C)C)C3=O [*8-NHCOCH3]	485	510	12100
CN(C)CCN1C(=O)c2cccc3cc4c([N+](=O)[O-])cccc4c(c23)C1=O [*8-NO2]	50	20	650
COc1cccc2c3c4c(cccc4cc12)C(=O)N(CCN(C)C)C3=O [*8-OCH3]	13	18	806
CN(C)CCN1C(=O)c2cccc3cc4c(O)cccc4c(c23)C1=O [*8-OH]	108	67	2950
CN(C)CCN1C(=O)c2cccc3cc4cc(Cl)ccc4c(c23)C1=O [*9-Cl]	8	8	1540
CN(C)CCN1C(=O)c2cccc3cc4cc(N)ccc4c(c23)C1=O [*9-NH2]	3	16	813
CC(=O)Nc1ccc2c3c4c(cccc4cc2c1)C(=O)N(CCN(C)C)C3=O [*9-NHCOCH3]	114	170	487
CN(C)CCN1C(=O)c2cccc3cc4ccc(F)cc4c(c23)C1=O [*10-F]	8	–	456
